{"source": "patent US5066676A", "about": "“Sulfonamido derivative inhibiting the aldose reductase enzyme system and pharmaceutical compositions containing them” (Laboratori Baldacci SpA, priority 1987, dated 1991)", "key": {"[1]": {"test": "Acute toxicity of ARI 6 in the rat", "conditions": "in vivo"}, "[2]": {"test": "Acute toxicity of ARI 6 in the mouse", "conditions": "in vivo"}, "[3]": {"system": "galactosemic cataract in the rat", "test": "Action on the appearance of the galactosemic cataract (rat)", "type": "in vivo", "design": "appearance of the galactosemic cataract: unit not given here", "method": "(§1) With the compound bearing the abbreviation ARI 6 the following tests have been carried out in the rat and in the rabbit.\nAction on the appearance of the galactosemic cataract (rat)\nEffects of the administration of ARI-6 (5 and 25 mg/kg/die, os)\non the appearance of the galactosemic cataract in the rat.\n[…] In the brackets the number of animals for each group is indicated.\nThe diet contains D-galactose 50%.\nEffects of the administration of ARI-1 (5 and 25 mg/kg/die, os)"}, "[4]": {"system": "diabetic cataract in the rat", "test": "Action on the appearance of the diabetic cataract (rat)", "type": "in vivo", "conditions": "for appearance of the diabetic cataract: Table 5, 25 mg/kg/die per os", "method": "as §1\nAction on the appearance of the diabetic cataract (rat).\nEffects of the administration of ARI 6 (25 mg/kg/die, per os)\non the appearance of the diabetic cataract in the rat.\nThe values are expressed as percentages. Within brackets there are indicated the animals for each group.\nEffects of the administration of ARI-1 (25 mg/kg/die, per os)"}, "aldose reductase": {"target": "T1, aldose reductase (Bos taurus, UniProt P16116)", "T1 construct": "4 bovine crystalline lenses (8 g) are homogenized by means of Potter in ice bath; from tissue; host or cells: bovine crystalline lens", "test": "In vitro inhibition of aldose reductase activity of raw extracts from bovine crystalline lens", "type": "biochemical", "conditions": "glyceraldehyde substrate, NADPH, pH 6.8, 37° C.; read-out: IC50 on the aldose reductase activity of raw extracts originating from bovine crystalline lens", "method": "\"In vitro\" tests have been carried out to evalute the inhibition of the aldose reductase activity, prepared from the extract of bovine crystalline lenses.\nPREPARATION OF THE RAW EXTRACTS\n4 bovine crystalline lenses (8 g) are homogenized by means of Potter in ice bath with 40 ml of 50 mM phosphate buffer, pH 6.8, containing 2-mercaptoethanol pH ([…]). After centrifugation (12.000×g -20 min-4° C.) the supernatant is brought to 40% saturation with an ammonium sulphate and centrifugated again (14.000×g). The supernatant is then brought to the 80% saturation ((NH4)2 SO4) and, after centrifugation for 20 minutes and at 14.000×g, the sedimented matter is recovered and suspended in 7 ml of phosphate buffer. The enzymatic preparation is dialyzed by ultrafiltration with AMICON ultrafiltration cell.\nDOSAGE OF THE ENZYMATIC ACTIVITY\nThe reference cuvette contains all the several substances apart from the substrate."}, "rat": {"system": "rat", "test": "Toxicity per oral administration repeated in the rat (30 days)", "type": "in vivo", "conditions": "30 days, 100, 200, 300 mg/kg/die", "excerpt": "Toxicity per oral administration repeated in the rat (30 days)--Test protocol:\nCompound Doses mg/kg/die"}}, "data": [{"compound": "CN(CC(=O)O)S(=O)(=O)c1ccc2oc3ccc(Cl)cc3c(=O)c2c1", "note": "[ARI 6, 7-chloro-2 (N-methyl-N-carboxymethyl) sulfamoylxanthone]", "values": [{"measurement": "LD50", "setting": "[1]; ip, read-out: Acute toxicity in the rat ip", "result": 1000, "unit": "mg/kg"}, {"measurement": "LD50", "setting": "[1]; po, per os, read-out: Acute toxicity in the rat per os", "result": 1000, "unit": "mg/kg"}, {"measurement": "LD50", "setting": "[2]; ip, read-out: Acute toxicity in the mouse ip", "result": 1000, "unit": "mg/kg"}, {"measurement": "LD50", "setting": "[2]; po, per os, read-out: Acute toxicity in the mouse per os", "result": 1000, "unit": "mg/kg"}, {"measurement": "appearance of the galactosemic cataract", "setting": "[3]; Table 4, 5 mg/kg/die os, day 5 of diet", "result": 0.0}, {"measurement": "appearance of the galactosemic cataract", "setting": "[3]; Table 4, 5 mg/kg/die os, day 10 of diet", "result": 0.0}, {"measurement": "appearance of the galactosemic cataract", "setting": "[3]; Table 4, 5 mg/kg/die os, day 15 of diet", "result": 0.0}, {"measurement": "appearance of the galactosemic cataract", "setting": "[3]; Table 4, 5 mg/kg/die os, day 20 of diet", "result": 0.0}, {"measurement": "appearance of the galactosemic cataract", "setting": "[3]; Table 4, 5 mg/kg/die os, day 25 of diet", "result": 15.0}, {"measurement": "appearance of the galactosemic cataract", "setting": "[3]; Table 4, 5 mg/kg/die os, day 30 of diet", "result": 20.0}, {"measurement": "appearance of the galactosemic cataract", "setting": "[3]; Table 4, 5 mg/kg/die os, day 35 of diet", "result": 40.0}, {"measurement": "appearance of the galactosemic cataract", "setting": "[3]; Table 4, 5 mg/kg/die os, day 40 of diet", "result": 100.0}, {"measurement": "appearance of the galactosemic cataract", "setting": "[3]; Table 4, 5 mg/kg/die os, day 45 of diet", "result": 100.0}, {"measurement": "appearance of the galactosemic cataract", "setting": "[3]; Table 4, 5 mg/kg/die os, day 50 of diet", "result": 100.0}, {"measurement": "appearance of the galactosemic cataract", "setting": "[3]; Table 4, 25 mg/kg/die os, day 5 of diet", "result": 0.0}, {"measurement": "appearance of the galactosemic cataract", "setting": "[3]; Table 4, 25 mg/kg/die os, day 10 of diet", "result": 0.0}, {"measurement": "appearance of the galactosemic cataract", "setting": "[3]; Table 4, 25 mg/kg/die os, day 15 of diet", "result": 0.0}, {"measurement": "appearance of the galactosemic cataract", "setting": "[3]; Table 4, 25 mg/kg/die os, day 20 of diet", "result": 0.0}, {"measurement": "appearance of the galactosemic cataract", "setting": "[3]; Table 4, 25 mg/kg/die os, day 25 of diet", "result": 0.0}, {"measurement": "appearance of the galactosemic cataract", "setting": "[3]; Table 4, 25 mg/kg/die os, day 30 of diet", "result": 0.0}, {"measurement": "appearance of the galactosemic cataract", "setting": "[3]; Table 4, 25 mg/kg/die os, day 35 of diet", "result": 0.0}, {"measurement": "appearance of the galactosemic cataract", "setting": "[3]; Table 4, 25 mg/kg/die os, day 40 of diet", "result": 15.0}, {"measurement": "appearance of the galactosemic cataract", "setting": "[3]; Table 4, 25 mg/kg/die os, day 45 of diet", "result": 25.0}, {"measurement": "appearance of the galactosemic cataract", "setting": "[3]; Table 4, 25 mg/kg/die os, day 50 of diet", "result": 100.0}, {"measurement": "delay for the appearance of the galactosemic cataract", "setting": "[3]; rat, 5 mg/kg, vs controls", "result": "about 20 days"}, {"measurement": "effect on appearance of the galactosemic cataract (in words)", "setting": "[3]; rat, higher doses", "result": "A more intense effect"}, {"measurement": "appearance of the diabetic cataract", "setting": "[4]; day 5 from streptozotocine", "result": 0.0, "unit": "%"}, {"measurement": "appearance of the diabetic cataract", "setting": "[4]; day 10 from streptozotocine", "result": 0.0, "unit": "%"}, {"measurement": "appearance of the diabetic cataract", "setting": "[4]; day 15 from streptozotocine", "result": 0.0, "unit": "%"}, {"measurement": "appearance of the diabetic cataract", "setting": "[4]; day 20 from streptozotocine", "result": 0.0, "unit": "%"}, {"measurement": "appearance of the diabetic cataract", "setting": "[4]; day 25 from streptozotocine", "result": 0.0, "unit": "%"}, {"measurement": "appearance of the diabetic cataract", "setting": "[4]; day 30 from streptozotocine", "result": 0.0, "unit": "%"}, {"measurement": "appearance of the diabetic cataract", "setting": "[4]; day 35 from streptozotocine", "result": 0.0, "unit": "%"}, {"measurement": "appearance of the diabetic cataract", "setting": "[4]; day 40 from streptozotocine", "result": 20.0, "unit": "%"}, {"measurement": "appearance of the diabetic cataract", "setting": "[4]; day 45 from streptozotocine", "result": 30.0, "unit": "%"}, {"measurement": "appearance of the diabetic cataract", "setting": "[4]; day 50 from streptozotocine", "result": 100.0, "unit": "%"}, {"measurement": "delay of the appearance of the diabetic cataract", "setting": "[4]; rat, 25 mg/kg, vs controls", "result": "about 30 days"}, {"measurement": "IC50", "setting": "aldose reductase", "result": 9.2, "unit": "µM"}, {"measurement": "Microscope and hystomorphological examination", "setting": "rat", "result": "no alteration"}, {"measurement": "death", "setting": "rat", "result": "No death"}, {"measurement": "Behaviour and general status", "setting": "rat; vs control group", "result": "no variation with respect to the control group"}, {"measurement": "Biochemical and hematological parameters", "setting": "rat; vs controls", "result": "no significant variation with respect to the controls"}]}]}
